# Experimental data reported in ChEMBL document CHEMBL6177968, “Development of sulfamoylbenzamide-based capsid assembly modulators for hepatitis B virus capsid assembly” (Eur J Med Chem, 2025).
# Columns and labels:
# Hepatitis B virus [1] = assay: Antiviral activity against HBV in human HepG2.2.15 cells assessed as reduction in viral replication incubated for 5 days by real-time PCR analysis; format: functional, organism-based; details: HepG2.2.15, 120 h
# [2] = Cytotoxicity in human HepG2.2.15 cells assessed as reduction in cell viability; format: toxicity, cell-based, HepG2 2.2.15
# [3] = Selectivity index, ratio of CC50 for cytotoxicity in human HepG2.2.15 cells assessed as reduction in cell viability to EC50 for antiviral activity against HBV in human HepG2.2.15 cells assessed as reduction in viral replication; format: toxicity, cell-based; details: read-out: Ratio CC50/EC50
# [4] = Metabolic stability in mouse liver microsomes assessed as compound remaining measured after 30 mins; format: ADME, Microsome; details: read-out: Stability
# [5] = Metabolic stability in rat liver microsomes assessed as compound remaining measured after 30 mins; format: ADME, Microsome; details: read-out: Stability
# [6] = Metabolic stability in human liver microsomes assessed as compound remaining measured after 30 mins; format: ADME, Microsome; details: read-out: Stability
# Hepatitis B virus [7] = assay: Antiviral activity against HBV in human HepG2 cells expressing NTCP assessed as reduction in viral replication; format: functional, organism-based
# Hepatitis B virus [8] = assay: Antiviral activity against HBV in human HepaRG cells assessed as reduction in viral replication; format: functional, organism-based
# [9] = Cytotoxicity in human HepG2-hNTCP cells assessed as reduction in cell viability; format: toxicity, cell-based
# [10] = Cytotoxicity in human HepaRG cells assessed as reduction in cell viability; format: toxicity, cell-based
# [11] = Selectivity index, ratio of CC50 for cytotoxicity in human HepG2-hNTCP cells assessed as reduction in cell viability to EC50 for antiviral activity against HBV in human HepG2-hNTCP cells assessed as reduction in viral replication; format: toxicity, cell-based; details: read-out: Ratio CC50/EC50
# [12] = Selectivity index, ratio of CC50 for cytotoxicity in human HepaRG cells assessed as reduction in cell viability to EC50 for antiviral activity against HBV in human HepaRG cells assessed as reduction in viral replication; format: toxicity, cell-based; details: read-out: Ratio CC50/EC50
# Hepatitis B virus [13] = assay: Antiviral activity against HBV infected in human HepG2 cells expressing NTCP assessed as viral DNA replication at 1 uM incubated for 6 days by Southern blot analysis (reference value: 100 %); format: functional; details: time 6 day
# Hepatitis B virus [14] = assay: Antiviral activity against HBV infected in human HepG2 cells expressing NTCP assessed as capsid level at 1 uM incubated for 6 days by Western blot analysis (reference value: 100 %); format: functional; details: time 6 day
# Hepatitis B virus [15] = assay: Antiviral activity against HBV infected in human HepG2 cells expressing NTCP assessed as capsid associated HBV DNA level at 1 uM incubated for 6 days by Western blot analysis (reference value: 100 %); format: functional; details: time 6 day
# Hepatitis B virus [16] = assay: Antiviral activity against HBV infected in human HepG2 cells expressing NTCP assessed as intracellular HBc level at 1 uM incubated for 6 days by Western blot analysis (reference value: 100 %); format: functional; details: time 6 day
# Hepatitis B virus [17] = assay: Antiviral activity against HBV infected in human HepG2 cells expressing NTCP assessed as ratio of capsid associated HBV DNA level at 1 uM incubated for 6 days by Western blot analysis (reference value: 100 %); format: functional; details: time 6 day
SMILES,EC50 (Hepatitis B virus [1]) [nM],CC50 [2] [µM],selectivity ratio [3],other results
Nc1cc(F)c(S(=O)(=O)N2CCOCC2)cc1C(=O)Nc1ccc(F)c(F)c1,410,248,610,–
C[C@@H](NS(=O)(=O)c1cc(C(=O)Nc2ccc(F)c(C(F)F)c2)c(N)cc1F)C1COC1,470,187,399,–
Nc1cc(F)c(S(=O)(=O)N2CCS(=O)(=O)CC2)cc1C(=O)Nc1ccc(F)c(C(F)F)c1,220,385,1740,–
Nc1cc(F)c(S(=O)(=O)N2CC3CCC(C2)O3)cc1C(=O)Nc1ccc(F)c(F)c1,360,14,38.5,–
CC1(CNS(=O)(=O)c2cc(C(=O)Nc3ccc(F)c(C(F)F)c3)c(N)cc2F)COC1,60,855,14300,remaining at 0.5 h [4]: 1.37%; remaining at 0.5 h [5]: 8.38%; remaining at 0.5 h [6]: 23.6%
CC(C)(NS(=O)(=O)c1cc(C(=O)Nc2ccc(F)c(C(F)F)c2)c(N)cc1F)C1COC1,580,161,277,remaining at 0.5 h [4]: 0.03%; remaining at 0.5 h [5]: 5.63%; remaining at 0.5 h [6]: 17.2%
Nc1cc(F)c(S(=O)(=O)N2CCCOCC2)cc1C(=O)Nc1ccc(F)c(F)c1,220,10.7,48.6,–
Nc1cc(F)c(S(=O)(=O)NCC2COC2)cc1C(=O)Nc1ccc(F)c(C(F)F)c1,130,150,1160,remaining at 0.5 h [4]: 31.9%; remaining at 0.5 h [5]: 26%; remaining at 0.5 h [6]: 56.2%
N#Cc1cc(NC(=O)c2cc(S(=O)(=O)N3CCOCC3)c(F)cc2N)ccc1F,3010,> 900,> 299,–
Nc1cc(F)c(S(=O)(=O)N2CC3(COC3)C2)cc1C(=O)Nc1ccc(F)c(F)c1,440,170,386,–
C[C@H](CO)NS(=O)(=O)c1cc(C(=O)Nc2ccc(F)c(F)c2)c(N)cc1F,690,204,296,–
Nc1cc(F)c(S(=O)(=O)N[C@H]2COC(=O)C2)cc1C(=O)Nc1ccc(F)c(C(F)F)c1,2950,698,237,–
Nc1cc(F)c(S(=O)(=O)NC2CCNC2)cc1C(=O)Nc1ccc(F)c(F)c1 (centres undefined),7520,109,14.5,–
Nc1cc(F)c(S(=O)(=O)N2CCOCC2)cc1C(=O)Nc1ccc(F)c(C(F)F)c1,160,681,4240,–
CN(C1COC1)S(=O)(=O)c1cc(C(=O)Nc2ccc(F)c(C(F)F)c2)c(N)cc1F,70,7.68,115,–
COCCNS(=O)(=O)c1cc(C(=O)Nc2ccc(F)c(F)c2)c(N)cc1F,3020,97,32.1,–

SMILES,EC50 (Hepatitis B virus [1]) [nM],CC50 [2] [µM],selectivity ratio [3],other results
Nc1cc(F)c(S(=O)(=O)NC2CCC2)cc1C(=O)Nc1ccc(F)c(C(F)F)c1,180,22.8,125,–
Nc1cc(F)c(S(=O)(=O)N2CC3(COC3)C2)cc1C(=O)Nc1ccc(F)c(C(F)F)c1,250,> 900,> 3540,–
Nc1cc(F)c(S(=O)(=O)N2CC3COCC3C2)cc1C(=O)Nc1ccc(F)c(C(F)F)c1 (centres undefined),100,> 900,> 9330,remaining at 0.5 h [4]: 0.09%; remaining at 0.5 h [5]: 0.79%; remaining at 0.5 h [6]: 0.76%
Cc1cc(NC(=O)c2cc(S(=O)(=O)N3CCOCC3)c(F)cc2N)ccc1F,4580,433,94.7,–
C[C@@H](CO)NS(=O)(=O)c1cc(C(=O)Nc2ccc(F)c(F)c2)c(N)cc1F,2120,156,73.7,–
Nc1cc(F)c(S(=O)(=O)N[C@@H]2CCOC2=O)cc1C(=O)Nc1ccc(F)c(C(F)F)c1,1610,238,147,–
CC1(NS(=O)(=O)c2cc(C(=O)Nc3ccc(F)c(C(F)F)c3)c(N)cc2F)COC1,60,26.1,458,–
Nc1cc(F)c(S(=O)(=O)N2CCCOCC2)cc1C(=O)Nc1ccc(F)c(C(F)F)c1,50,5.14,96.2,–
Nc1cc(F)c(S(=O)(=O)NC2CCOCC2)cc1C(=O)Nc1ccc(F)c(F)c1,1400,29.5,21.1,–
Nc1cc(F)c(S(=O)(=O)NC2CCOC2)cc1C(=O)Nc1ccc(F)c(F)c1 (centres undefined),490,26.3,53.6,–
Nc1cc(F)c(S(=O)(=O)N2CCNCC2)cc1C(=O)Nc1ccc(F)c(F)c1,1190,31.5,26.4,–
Nc1cc(F)c(S(=O)(=O)N[C@@H]2CNC2=O)cc1C(=O)Nc1ccc(F)c(C(F)F)c1,> 30000,> 900,–,–
Nc1cc(F)c(S(=O)(=O)NC2CNC2)cc1C(=O)Nc1ccc(F)c(F)c1,1520,85.8,56.5,–
CC(C)NS(=O)(=O)c1cc(C(=O)Nc2ccc(F)c(F)c2)c(N)cc1F,250,9.29,36.8,–
O=C(Nc1cc(F)c(F)c(F)c1)c1ccc(F)c(S(=O)(=O)N2CCC(O)CC2)c1,–,–,–,EC50 (Hepatitis B virus [7]): 320 nM; EC50 (Hepatitis B virus [8]): 3.74 µM; CC50 [9]: 24.2 µM; CC50 [10]: 23 µM; selectivity ratio [11]: 75.7; selectivity ratio [12]: 6.15; Activity (Hepatitis B virus [13]): 61%; Activity (Hepatitis B virus [14]): 136%; Activity (Hepatitis B virus [15]): 95%; Activity (Hepatitis B virus [16]): 82%; Ratio (Hepatitis B virus [17]): 69%
Nc1cc(F)c(S(=O)(=O)N2CCOCC2)cc1C(=O)Nc1ccc(F)c(Cl)c1,> 30000,198,–,–
